According to patent US10668039B2, “Methods for treatment of adenoid cystic carcinoma” (THE CHILDREN'S MEDICAL CENTER CORPORATION, priority 2016, dated 2020):
Entries after “also recorded” stand apart in the source; their conditions may differ.

What was measured:
[1] = system: runx1; assay: In situ hybridization of whole embryos, runx1; format: in vivo, zebrafish; details: 10 μM, treated 48-72 hpf, fixed at 72 hpf
Description: In situ hybridization: Wildtype AB embryos from the same clutch were treated between 48-72 hpf with 10 μM retinoic acid agonists diluted in E3, fixed at 72 hpf in 4% paraformaldehyde, and processed as previously described. CHT staining in the embryos was blindly scored as high, medium, or low, and summed across 3 independent experiments as done previously. Representative images were acquired on a Nikon ZMS 18 microscope.

[2] = system: U937 cells; assay: U937 proliferation, CellTiter-Glo; format: cell-based, human; details: 2 days (48 hours) of treatment, dose response
Description: Cell culture: U937 cells were grown in RPMI 1640 (Life Technologies), 10% heat inactivated FBS, and 1% Penicillin-Streptomycin (Invitrogen). CellTiter-Glo Luminescent Cell Viability Assay (Promega) was performed as per manufacturer's instructions. Cell viability was assessed at day 2.
Proliferation assays: U937 cells (ATCC) were grown in RPMI 1640 medium (Gibco) supplemented with 10% FBS and 1% Penicillin-Streptomycin (Gibco) and cultured in a 37° C. incubator with 5% CO2. U937 cells are listed in the database of commonly misidentified cell lines maintained by ICLAC, but authentic stocks are available and certified by ATCC based on DNA short-tandem repeat analysis. […] U937 cells were tested every other week for mycoplasma contamination using the MycoAlert Mycoplasma Detection Kit (Lonza) and consistently confirmed to be negative. Cells were seeded at an initial density of 1,150 cells/well (96 well plate) with chemicals at the concentrations indicated. After 48 hours, cell proliferation rates were determined using CellTiter-Glo (Promega) luminescent cell viability assay as per the manufacturer's instructions.

## CC(C=CC1=C(C)CCCC1(C)C)=CC=C/C(C)=C/C(=O)O [ATRA, (E)-3,7-dimethyl-9-(2,6,6-trimethyl-1-cyclo-hexen-1-yl)-2,4,6,8-nonatetraenoic acid]
[1]
  runx1 expression (staining) in the CHT: significant decrease; also recorded: decreased staining
[2]
  U937 proliferation (CellTiter-Glo): inhibited
